In brackets after ≈: the same amount, converted by molar mass. Entries after “also recorded” stand apart in the source; their conditions may differ.
What was measured:
[1] = tested on: IL-6 and IL-1β mRNA expression; test: Dose-range finding for reduction of IL-6 and IL-1β mRNA expression in stimulated macrophages; format: cell-based; details: Macrophage, dose-range finding studies
Description: A multi-dimensional chromatography approach was used that separates pHMO first by charge and then by size. […] To exclude that the observed effect was due to impurities or contaminations from the isolation process, the results were confirmed with synthetized and commercially available 3′SL. […] Other oligosaccharides like 2′-fucosyllactose (2′FL), where the terminal monosaccharide is fucose instead of sialic acid (see FIG. 1C), had no effect, emphasizing that the anti-inflammatory effect of 3′ SL in macrophages is specific to the structure of 3′SL.

[2] = tested on: collagen antibody-induced arthritis (CAIA) mouse model; test: Collagen antibody-induced arthritis (CAIA) model; format: in vivo, BALB/c mice; details: for histology score for cartilage damage / histology score for erosion / histology score for inflammation: hind paws, day 14, scored 0 to 4
Method: Next, it was asked whether or not the in vitro results translate to an in vivo model. 3′ SL efficacy in a collagen antibody-induced arthritis (CAIA) model was tested in mice. In the CAIA model, arthritis is induced by systemic administration of a cocktail of monoclonal antibodies that target various regions of collagen type II, which is one of the major constituents of articular cartilage matrix proteins, followed by the administration of endotoxin (LPS) on day 3. The high uptake rate in the CAIA model and the capacity to synchronize the development of arthritis from the time of antibody injection, makes this a relatively straightforward model that is used to address questions of pathogenic mechanisms and to screen candidate therapeutic agents. 8-week old female BALB/c mice were injected with 1.5 mg of Arthrogen-CIA monoclonal antibody cocktail (Chondrex, Inc.).
Three days later, the mice were injected with 25 μg of LPS. Beginning with the time of LPS administration and followed for the next 11 consecutive days, mice were orally gavaged thrice daily with either 3′ SL (20 mg in saline) or saline alone as control. With the tester blinded to the study groups, arthritis in each limb was determined once per day. […] By adding together, the scores of all four limbs, the maximum score per mouse is 28. In addition, a caliper was placed across the ankle joint at the widest point to measure ankle thickness in both hind limbs daily. 14 days after antibody cocktail administration, mice were euthanized, and hind paws collected and processed for histology. H&E—as well as Toluidine blue-stained sections were scored from 0 to 4 for inflammation, bone erosion and cartilage depletion based on a previously validated scoring system.

[3] = tested on: bone marrow derived macrophages; test: Pro-inflammatory cytokine expression in primary mouse cells; format: cell-based
Description: (§1) Accordingly, the results with 3′SL translate to primary cells as well as to human macrophages.

[4] = tested on: THP-1 monocytic cell line; test: Pro-inflammatory cytokine expression in human monocytic cell line; format: cell-based; details: human THP-1 monocytic cell line
Description: as §1

[5] = tested on: IL-1β mRNA in RAW 264.7 cells; test: IL-1β mRNA expression in LPS-stimulated macrophages (RT-PCR); format: cell-based, murine; details: LPS-activated macrophages, single oligosaccharide, 6 hours
Method: (§2) RAW246.7 cells were exposed to LPS either alone or in combination with either pooled human milk oligosaccharides (HMOs), or 3′-sialyllactose (3′SL) or 2′-fucosyllactose (2′FL). After 6 hours, IL-6 (A) and IL-1β (B) mRNA levels were measured by RT-PCR and are plotted as mean±standard deviation (n=8) relative the respective mRNA levels in cells that were exposed to LPS alone (**p<0.01; ***p<0.001). HMOs are a group of more than 150 different structurally distinct oligosaccharides and their composition follows a basic structural blueprint (C), containing five monosaccharide building blocks: glucose (dark gray circle), galactose (light gray circle), N-acetylglucosamine (dark gray square), fucose (gray triangle) and sialic acid (gray diamond). 3′SL contains lactose with sialic acid at the terminal end; 2′FL contains lactose with fucose at the terminal end.
(§3) Oligosaccharides Reduce Pro-Inflammatory Cytokine mRNA Expression in Stimulated Macrophages. HMOs were first isolated and purified from pooled human donor milk (pHMO) by using polymixin B affinity chromatography to remove any lipopolysaccharide (LPS) contamination. RAW 264.7 cells, a murine macrophage cell line, were then incubated with LPS (10 ng/mL) and pHMO (500 μg/mL) for 6 hours. RT-PCR was used to measure cytokine mRNA expression. […]

[6] = tested on: IL-6 mRNA in RAW 264.7 cells; test: IL-6 mRNA expression in LPS-stimulated macrophages (RT-PCR); format: cell-based, murine; details: LPS-activated macrophages, single oligosaccharide, 6 hours
Method: as §2, §3

[7] = tested on: acetic acid-induced writhing; test: Acetic acid-induced writhing test; format: in vivo; details: mice pretreated by oral or intravenous administration prior to acetic acid
[8] = CAIA mice, oral gavage 20 mg thrice daily from LPS trigger, vs saline
[9] = oral gavage 20 mg thrice daily, listed as 3′ SL

CC(=O)N[C@H]1C([C@H](O)[C@H](O)CO)O[C@@](O[C@@H]2C(O)[C@H](O[C@@H]3C(CO)O[C@@H](O)C(O)[C@H]3O)OC(CO)[C@@H]2O)(C(=O)O)C[C@H]1O (stereo partly drawn) [3′SL, 3′-sialyllactose]
IC50 [1]: ~15 µg/mL (≈ 23.7 µM)
Baseline-corrected ankle thickness (paw swelling) [2, 8]: significantly reduced; also recorded: reduces
clinical index score 28 [2, 8]: significantly reduced; also recorded: reduces
histology score for cartilage damage ([2]; oral gavage 20 mg thrice daily): significantly lower
histology score for erosion ([2]; oral gavage 20 mg thrice daily): significantly lower
histology score for inflammation ([2]; oral gavage 20 mg thrice daily): significantly lower
histology score for cartilage damage [2, 9]: significantly reduced
histology score for erosion [2, 9]: significantly reduced
histology score for inflammation [2, 9]: significantly reduced
adverse effects ([2]; throughout the 14-day study period, CAIA mice, oral gavage 20 mg thrice daily): No adverse effects
pro-inflammatory cytokine expression [3]: reduced pro-inflammatory cytokine expression
pro-inflammatory cytokine expression [4]: reduced pro-inflammatory cytokine expression
reduction of IL-1β mRNA expression [5]: most effective; also recorded: reduces
reduction of IL-6 mRNA expression [6]: most effective; also recorded: reduces

CC(=O)N[C@H]1[C@H]([C@H](O)[C@H](O)CO)O[C@@](O[C@H]2[C@@H](O)[C@@H](CO)O[C@@H](O[C@H]3[C@H](O)[C@@H](O)C(O)O[C@@H]3CO)[C@@H]2O)(C(=O)O)C[C@@H]1O (stereo partly drawn) [Sialyllactose]
inhibition of writhing [7]: causes inhibition of writhing

Reference: patent US12383569B2, “Immunomodulatory oligosaccharides for the treatment of pain” (Intrinsic Medicine, Inc., priority 2019, dated 2025)
